Data: ChEMBL document CHEMBL1132047, “Nonpeptide oxytocin antagonists: analogs of L-371,257 with improved potency” (Bioorg Med Chem Lett, 1999)

Assays:
[1] = biological target: T1, Oxytocin receptor (Homo sapiens, UniProt P30559); test: Binding affinity for human oxytocin receptor
T1 sequence (P30559 whole entry): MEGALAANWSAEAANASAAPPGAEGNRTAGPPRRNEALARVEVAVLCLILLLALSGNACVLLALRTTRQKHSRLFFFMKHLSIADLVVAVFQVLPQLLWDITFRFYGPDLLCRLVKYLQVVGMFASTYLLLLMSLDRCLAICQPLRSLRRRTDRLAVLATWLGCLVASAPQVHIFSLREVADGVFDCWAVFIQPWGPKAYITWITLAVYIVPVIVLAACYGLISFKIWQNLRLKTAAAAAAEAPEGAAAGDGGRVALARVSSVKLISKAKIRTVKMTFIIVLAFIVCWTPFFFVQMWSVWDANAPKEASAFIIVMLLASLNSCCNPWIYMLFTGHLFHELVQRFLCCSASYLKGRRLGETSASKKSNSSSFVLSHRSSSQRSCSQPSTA

[2] = Compound was evaluated in vivo in rat for the plasma half-life at a iv dose of 3 mg/kg and oral dose of 10 mg/kg and experiment by using concentration vs time curve; type: ADME, organism-based
[3] = biological target: T2, Oxytocin receptor (Rattus norvegicus, UniProt P70536); test: Binding affinity for rat uterine oxytocin receptor (rOTr)
T2 sequence (P70536 whole entry): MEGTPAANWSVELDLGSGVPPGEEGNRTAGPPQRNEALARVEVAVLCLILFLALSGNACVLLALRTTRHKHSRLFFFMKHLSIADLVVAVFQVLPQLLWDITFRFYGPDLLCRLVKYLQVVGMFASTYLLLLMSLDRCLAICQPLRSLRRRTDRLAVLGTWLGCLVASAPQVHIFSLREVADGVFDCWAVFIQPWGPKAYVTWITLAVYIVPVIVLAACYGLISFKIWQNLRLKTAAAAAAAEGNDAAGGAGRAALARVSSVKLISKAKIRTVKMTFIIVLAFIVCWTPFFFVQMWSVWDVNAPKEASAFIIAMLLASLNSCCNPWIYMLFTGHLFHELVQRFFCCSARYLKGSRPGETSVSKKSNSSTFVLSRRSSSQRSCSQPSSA

[4] = biological target: Vasopressin V2 receptor (Homo sapiens, UniProt P30518); test: Binding affinity towards cloned human Vasopressin V2 receptor by using functional assay
[5] = biological target: Vasopressin V1a receptor (Rattus norvegicus, UniProt P30560); test: Binding affinity towards rat liver Vasopressin V1a receptor by using functional assay
[6] = biological target: Vasopressin V2 receptor (Rattus norvegicus, UniProt Q00788); test: Binding affinity towards rat kidney Vasopressin V2 receptor by using functional assay
[7] = tested on: Rattus norvegicus; test: Compound tested in vivo for antagonist potency against oxytocin (OT)-induced in rats by iv administration; type: functional
[8] = Compound was evaluated for pharmacokinetic property in rats after an oral dose of 10 mg/kg and the value was reported as oral bioavailability (F); type: ADME, organism-based; conditions: rat, in vivo
[9] = Oral bioavailability in rat (dose 20 mg/kg); type: ADME, organism-based; conditions: in vivo
[10] = biological target: Vasopressin V1a receptor (Homo sapiens, UniProt P37288); test: Binding affinity towards human Vasopressin V1a receptor by using functional assay
[11] = tested on: Rattus norvegicus; test: Compound tested in vivo for antagonist potency against oxytocin (OT)-induced in rats by id administration; type: functional
[12] = Compound was evaluated in vivo in rat for the plasma half-life at a oral dose of 20 mg/kg experiment by using concentration vs time curve; type: ADME, organism-based; design: dose 20 mg/kg, route oral
[13] = tested on: Rattus norvegicus; test: Compound tested in vivo for antagonist potency against oxytocin (OT)-induced contractions in rat uterus by iv administration; type: functional

Sequence of Vasopressin V1a receptor (Rattus norvegicus, UniProt P30560) (P30560 whole entry): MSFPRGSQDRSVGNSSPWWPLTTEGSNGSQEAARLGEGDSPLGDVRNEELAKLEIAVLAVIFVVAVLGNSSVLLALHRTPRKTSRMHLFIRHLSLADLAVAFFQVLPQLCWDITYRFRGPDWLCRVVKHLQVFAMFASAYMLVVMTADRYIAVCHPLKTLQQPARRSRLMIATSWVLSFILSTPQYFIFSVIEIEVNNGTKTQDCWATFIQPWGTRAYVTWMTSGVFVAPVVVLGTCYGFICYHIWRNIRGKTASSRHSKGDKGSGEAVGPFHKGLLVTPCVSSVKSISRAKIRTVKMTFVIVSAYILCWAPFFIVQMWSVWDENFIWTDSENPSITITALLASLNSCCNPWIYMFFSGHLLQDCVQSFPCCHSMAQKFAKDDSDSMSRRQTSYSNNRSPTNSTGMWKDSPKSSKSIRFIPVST
Sequence of Vasopressin V2 receptor (Homo sapiens, UniProt P30518) (P30518 whole entry): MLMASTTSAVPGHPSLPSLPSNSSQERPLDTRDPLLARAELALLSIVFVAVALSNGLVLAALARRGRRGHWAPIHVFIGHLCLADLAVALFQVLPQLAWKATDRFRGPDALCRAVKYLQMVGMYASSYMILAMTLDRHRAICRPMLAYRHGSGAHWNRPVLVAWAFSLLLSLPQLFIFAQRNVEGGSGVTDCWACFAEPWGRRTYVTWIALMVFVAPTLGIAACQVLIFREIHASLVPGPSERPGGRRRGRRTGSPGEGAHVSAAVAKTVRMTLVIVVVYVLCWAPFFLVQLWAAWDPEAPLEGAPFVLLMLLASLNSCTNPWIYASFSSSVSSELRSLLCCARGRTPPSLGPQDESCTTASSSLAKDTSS
Sequence of Vasopressin V1a receptor (Homo sapiens, UniProt P37288) (P37288 whole entry): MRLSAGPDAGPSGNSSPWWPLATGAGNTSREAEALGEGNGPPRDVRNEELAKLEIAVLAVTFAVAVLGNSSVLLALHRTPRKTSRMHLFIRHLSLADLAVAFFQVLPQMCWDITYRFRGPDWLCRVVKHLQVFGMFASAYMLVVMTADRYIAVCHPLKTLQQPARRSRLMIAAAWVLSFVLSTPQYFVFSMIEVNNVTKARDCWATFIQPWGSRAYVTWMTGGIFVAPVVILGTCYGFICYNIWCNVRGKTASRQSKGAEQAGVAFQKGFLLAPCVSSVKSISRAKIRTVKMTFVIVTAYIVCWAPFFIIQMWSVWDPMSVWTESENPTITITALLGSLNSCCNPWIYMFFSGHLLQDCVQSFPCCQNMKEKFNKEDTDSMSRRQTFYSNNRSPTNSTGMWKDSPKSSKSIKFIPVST
Sequence of Vasopressin V2 receptor (Rattus norvegicus, UniProt Q00788) (Q00788 whole entry): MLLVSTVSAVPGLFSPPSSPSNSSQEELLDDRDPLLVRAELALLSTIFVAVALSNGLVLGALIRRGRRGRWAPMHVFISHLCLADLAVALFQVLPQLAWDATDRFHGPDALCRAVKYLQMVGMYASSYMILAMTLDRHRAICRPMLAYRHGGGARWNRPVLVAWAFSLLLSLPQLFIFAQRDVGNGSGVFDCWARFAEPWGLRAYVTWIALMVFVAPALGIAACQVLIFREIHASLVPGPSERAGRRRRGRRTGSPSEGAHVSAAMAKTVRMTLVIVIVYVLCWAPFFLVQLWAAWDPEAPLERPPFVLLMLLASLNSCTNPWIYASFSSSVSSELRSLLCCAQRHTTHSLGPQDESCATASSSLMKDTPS

Row | Compound | Ki [1] [nM] | Ki [3] [nM] | AD50 [7] [mg/kg] | AD50 [11] [mg/kg] | also measured
1 | CC(=O)N1CCC(Oc2ccc(CC(=O)N3CCC(N4C(=O)OCc5ccccc54)CC3)c(OCC(F)(F)F)c2)CC1 | 1.4 | 0.71 | 0.06 | 0.64 | half-life [2]: 0.27 h; Ki [4]: 130 nM; Ki [5]: 2 nM; Ki [6]: 150 nM; bioavailability [8]: 19%; bioavailability [9]: 19%; Ki [10]: 740 nM
2 | O=C(Cc1ccccc1OCC(F)(F)F)N1CCC(N2C(=O)OCc3ccccc32)CC1 | 4.5 | 6 | 1 | >10 | 
3 | CC(=O)N1CCC(Oc2ccc(CC(=O)N3CCC(N4C(=O)OCc5ccccc54)CC3)cc2)CC1 | 390 | 1600 |  |  | 
4 | COc1cc(OC2CCN(C(C)=O)CC2)ccc1C(=O)N1CCC(N2C(=O)OCc3ccccc32)CC1 |  |  |  | 2.5 | half-life [12]: 0.5 h; AD50 [13]: 0.55 mg/kg
5 | CC(=O)N1CCC(Oc2ccc(CC(=O)N3CCC(N4C(=O)OCc5ccccc54)CC3)c(OC(F)(F)F)c2)CC1 | 2.4 | 2.8 | 0.27 |  | 
6 | COc1ccc(CC(=O)N2CCC(N3C(=O)OCc4ccccc43)CC2)c(OC)c1 | 33 | 37 |  |  | 
7 | O=C(Cc1ccc(OCCN2CCOCC2)cc1OCC(F)(F)F)N1CCC(N2C(=O)OCc3ccccc32)CC1 | 1.4 | 2.1 | 0.13 |  | half-life [2]: 2.8 h; bioavailability [9]: 31%
8 | COc1cc(OC2CCN(C(C)=O)CC2)ccc1CC(=O)N1CCC(N2C(=O)OCc3ccccc32)CC1 | 9.8 | 36 |  |  | 
9 | COc1ccc(CCC(=O)N2CCC(N3C(=O)OCc4ccccc43)CC2)c(OC)c1 | 240 | 520 |  |  | 
10 | O=C(Cc1ccc(OC2CCN(CC3CC3)CC2)cc1OCC(F)(F)F)N1CCC(N2C(=O)OCc3ccccc32)CC1 | 1 | 1.2 | 0.69 | 22 | half-life [2]: 1.7 h; bioavailability [9]: 45%
11 | O=C(Cc1ccc(N2CCOCC2)cc1OCC(F)(F)F)N1CCC(N2C(=O)OCc3ccccc32)CC1 | 0.86 | 0.6 | 0.077 | 0.97 | 
